Read-outs that look alike come from different tables or passages of the source. Starred links: 1 amine or outer side, 2 acyl side, 3 side chain; linkers in the order of their positions; H or OH if unused. Positions of bridges follow the written chain, without caps; N, C: chain ends. Non-standard residues stand in square brackets, D forms with d. Residues, ends and D or L forms follow the SMILES beside them. *: point of attachment. NMeF = CN[C@@H](Cc1ccccc1)C(=O)O; NMeI = CC[C@H](C)[C@H](NC)C(=O)O; hPhe = N[C@@H](CCc1ccccc1)C(=O)O; NMeβAla = CN(CCC(=O)[*:2])[*:1]; NMeD = CN[C@@H](CC(=O)O)C(=O)O; NMeL = CN[C@@H](CC(C)C)C(=O)O; NMeV = CN[C@H](C(=O)O)C(C)C; NMeAbu = CC[C@H](NC)C(=O)O; NMeA = CN[C@@H](C)C(=O)O; Piperidide = C1CCN(*)CC1; Abu = CC[C@H](N)C(=O)O; NBuGly = CCCCNCC(=O)O; βAla = NCCC(=O)O; Sar = CNCC(=O)O; tBu = CC(C)(C)*
Legend:
Caco-2 cells = assay: Membrane permeability test using Caco-2 cells with preincubation; type: in vitro ADME
[1] = as above; type: in vitro ADME; settings: Caco-2
[2] = Metabolic stability test: liver microsomal stability assay; type: in vitro ADME, mouse; settings: for microsomal CLint at 1 µM: male, pH 7.4, presence of NADPH, read-out: Mouse Hepatic Microsome CLh,int NADPH(+)
[3] = Caco-2 cells, preincubation 20 to 24 hours, apical FaSSIF/HBSS 1% DMSO pH 6.0, basal HBSS 4% BSA pH 7.4, basal sample at 180 minutes
[4] = preincubation 20 to 24 hours, Apical FaSSIF/HBSS pH 6.0, Basal HBSS 4% BSA pH 7.4, 180 minutes, read-out: Caco2 Papp
[5] = mouse liver microsomes 0.5 mg protein/mL, compound 1 µM
[6] = mouse liver microsomes 0.5 mg protein/mL, compound 1 µM, absence of NADPH

| Compound | Caco2 Papp (10^-6 cm/sec) (Caco-2 cells; [3]) | Papp A→B [1, 4] | microsomal CLint at 1 µM [2, 5] | Mouse Hepatic Microsome CLh,int NADPH(-) [2, 6] | Caco2 Papp (10^-6 cm/sec) (Caco-2 cells; Caco-2) | Papp A→B [1] | Mouse Hepatic Microsome CLh,int NADPH(-) [2] |
| --- | --- | --- | --- | --- | --- | --- | --- |
| CCCCN1CC(=O)N(C)[C@@H](Cc2ccccc2)C(=O)N[C@@H](COC(C)(C)C)C(=O)N(C)[C@@H](CC(C)C)C(=O)NCCC(=O)N(C)[C@@H](C)C(=O)N[C@@H]([C@@H](C)CC)C(=O)N(C)[C@@H](CC(C)C)C(=O)N[C@@H](C(C)C)C(=O)N(C)[C@H](C(=O)N2CCCCC2)CC(=O)N(C)CCC(=O)N(C)[C@@H](CC(C)C)C(=O)N[C@@H]([C@@H](C)CC)C(=O)N(C)[C@@H](Cc2ccccc2)C1=O [pd077] ([NMeβAla][NMeL]I[NMeF][NBuGly][NMeF]S(tBu)[NMeL][βAla][NMeA]I[NMeL]V[NMeD]-Piperidide; lactam N-14) | 0.32 10^-6 cm/sec | 0.32 ×10⁻⁶ cm/s | 40 µL/min/mg | 40.3 µL/min/mg Protein |  |  |  |
| CC[C@@H]1NC(=O)[C@H](CC(C)C)N(C)C(=O)C[C@@H](C(=O)N2CCCCC2)N(C)C(=O)[C@H](C(C)C)NC(=O)[C@H](CC(C)C)N(C)C(=O)[C@H](C)NC(=O)[C@H](CC)N(C)C(=O)[C@H](C(C)C)NC(=O)[C@H](CC(C)C)N(C)C(=O)[C@H](C)N(C)C(=O)[C@H](Cc2ccccc2)N(C)C(=O)[C@H](C(C)C)NC(=O)[C@@H]2CCCN2C(=O)[C@H](C(C)C)N(C)C1=O [pd078] ([NMeL][Abu][NMeV]PV[NMeF][NMeA][NMeL]V[NMeAbu]A[NMeL]V[NMeD]-Piperidide; lactam N-14) | 2.75 10^-6 cm/sec | 2.75 ×10⁻⁶ cm/s | 28.3 µL/min/mg | 22.9 µL/min/mg Protein |  |  |  |
| CC[C@H](C)[C@@H]1NC(=O)[C@H](CC(C)C)N(C)C(=O)[C@H](CC(C)C)NC(=O)[C@H](C)N(C)C(=O)C[C@@H](C(=O)N2CCCCC2)N(C)C(=O)[C@H](C)N(C)C(=O)[C@H](CC(C)C)NC(=O)[C@H](C(C)C)N(C)C(=O)[C@H](CC(C)C)N(C)C(=O)CNC(=O)[C@H]([C@@H](C)CC)N(C)C(=O)[C@H](Cc2ccccc2)N(C)C(=O)[C@H](C)NC(=O)[C@H](Cc2ccccc2)N(C)C1=O [pd079] ([NMeA]L[NMeL]I[NMeF]A[NMeF][NMeI]G[NMeL][NMeV]L[NMeA][NMeD]-Piperidide; lactam N-14) | 0.12 10^-6 cm/sec | 0.12 ×10⁻⁶ cm/s | 26.1 µL/min/mg | 38.4 µL/min/mg Protein |  |  |  |
| CC[C@@H]1NC(=O)[C@H](C(C)C)N(C)C(=O)[C@H](C)N(C)C(=O)[C@H](Cc2ccccc2)N(C)C(=O)[C@H](CC(C)C)NC(=O)[C@H](Cc2ccccc2)N(C)C(=O)[C@H](C(C)C)NC(=O)[C@H](CC(C)C)N(C)C(=O)[C@H]([C@@H](C)CC)NC(=O)[C@H](CC(C)C)N(C)C(=O)CN(C)C(=O)C[C@@H](C(=O)N2CCCCC2)N(C)C(=O)CNC(=O)[C@H](C)N(C)C1=O [pd080] ([Sar][NMeL]I[NMeL]V[NMeF]L[NMeF][NMeA][NMeV][Abu][NMeA]G[NMeD]-Piperidide; lactam N-14) | 0.25 10^-6 cm/sec | 0.25 ×10⁻⁶ cm/s | 29.3 µL/min/mg | 27.8 µL/min/mg Protein |  |  |  |
| CC[C@H](C)[C@@H]1NC(=O)[C@H]([C@@H](C)CC)N(C)C(=O)[C@@H](C)NC(=O)C[C@@H](C(=O)N2CCCCC2)N(C)C(=O)[C@H](Cc2ccccc2)N(C)C(=O)[C@H](C(C)C)NC(=O)CCN(C)C(=O)[C@H](CC)N(C)C(=O)[C@H](CC(C)C)N(C)C(=O)[C@H](C)NC(=O)CN(C)C(=O)[C@H](CC(C)C)N(C)C(=O)CCN(C)C(=O)[C@H](Cc2ccccc2)N(C)C1=O [pd081] ([dA][NMeI]I[NMeF][NMeβAla][NMeL][Sar]A[NMeL][NMeAbu][NMeβAla]V[NMeF][NMeD]-Piperidide; lactam N-14) |  |  |  |  | 0.02 10^-6 cm/sec | 0.02 ×10⁻⁶ cm/s | 5.7 µL/min/mg Protein |
| CCCCN1CC(=O)N(C)[C@@H](Cc2ccccc2)C(=O)N[C@@H](COC(C)(C)C)C(=O)N(C)[C@@H](CC(C)C)C(=O)N(C)[C@@H](CC)C(=O)N(C)[C@@H](C)C(=O)N[C@@H]([C@@H](C)CC)C(=O)N(C)[C@@H](C(C)C)C(=O)N[C@@H](C(C)C)C(=O)N(C)[C@H](C(=O)N2CCCCC2)CC(=O)N(C)CCC(=O)N(C)[C@@H](CC(C)C)C(=O)N[C@@H]([C@@H](C)CC)C(=O)N(C)[C@@H](Cc2ccccc2)C1=O [pd082] ([NMeβAla][NMeL]I[NMeF][NBuGly][NMeF]S(tBu)[NMeL][NMeAbu][NMeA]I[NMeV]V[NMeD]-Piperidide; lactam N-14) | 0.03 10^-6 cm/sec | 0.03 ×10⁻⁶ cm/s | 32.6 µL/min/mg | 38.5 µL/min/mg Protein |  |  |  |
| CC[C@@H]1NC(=O)[C@H](CC(C)C)N(C)C(=O)[C@H](C)NC(=O)[C@@H]2CCCN2C(=O)[C@H](CC)N(C)C(=O)[C@H](CC(C)C)N(C)C(=O)CN(C)C(=O)[C@H](Cc2ccccc2)N(C)C(=O)[C@H]([C@@H](C)CC)NC(=O)CCN(C)C(=O)[C@H](C(C)C)N(C)C(=O)[C@H](COC(C)(C)C)NC(=O)[C@H](CC(C)C)N(C)C(=O)C[C@@H](C(=O)N2CCCCC2)N(C)C1=O [pd083] ([NMeL]S(tBu)[NMeV][NMeβAla]I[NMeF][Sar][NMeL][NMeAbu]PA[NMeL][Abu][NMeD]-Piperidide; lactam N-14) | 0.04 10^-6 cm/sec | 0.04 ×10⁻⁶ cm/s | 11.4 µL/min/mg | 7.3 µL/min/mg Protein |  |  |  |
| CC[C@H](C)[C@@H]1NC(=O)[C@H](CC(C)C)N(C)C(=O)[C@H](CC(C)C)N(C)C(=O)[C@H](C)N(C)C(=O)C[C@@H](C(=O)N2CCCCC2)N(C)C(=O)[C@H](C)N(C)C(=O)[C@H](CC(C)C)NC(=O)[C@H](C(C)C)N(C)C(=O)[C@H](CC(C)C)N(C)C(=O)CNC(=O)[C@H]([C@@H](C)CC)N(C)C(=O)[C@H](Cc2ccccc2)N(C)C(=O)[C@H](C)NC(=O)[C@H](Cc2ccccc2)N(C)C1=O [pd084] ([NMeA][NMeL][NMeL]I[NMeF]A[NMeF][NMeI]G[NMeL][NMeV]L[NMeA][NMeD]-Piperidide; lactam N-14) | 0.21 10^-6 cm/sec | 0.21 ×10⁻⁶ cm/s | 39 µL/min/mg | 37.8 µL/min/mg Protein |  |  |  |
| CC[C@H](C)[C@@H]1NC(=O)[C@H](CC(C)C)N(C)C(=O)CN(C)C(=O)C[C@@H](C(=O)N2CCCCC2)N(C)C(=O)CNC(=O)[C@H](C)N(C)C(=O)[C@H](CC)N(C)C(=O)[C@H](C(C)C)N(C)C(=O)[C@H](C)N(C)C(=O)[C@H](Cc2ccccc2)N(C)C(=O)[C@H](CC(C)C)NC(=O)[C@H](Cc2ccccc2)N(C)C(=O)[C@H](C(C)C)NC(=O)[C@H](CC(C)C)N(C)C1=O [pd085] ([Sar][NMeL]I[NMeL]V[NMeF]L[NMeF][NMeA][NMeV][NMeAbu][NMeA]G[NMeD]-Piperidide; lactam N-14) | 0.17 10^-6 cm/sec | 0.17 ×10⁻⁶ cm/s | 26.9 µL/min/mg | 28.9 µL/min/mg Protein |  |  |  |
| CC(C)C[C@@H]1NC(=O)[C@H](CC(C)C)N(C)C(=O)[C@H]([C@@H](C)O)NC(=O)[C@H](C(C)C)N(C)C(=O)[C@H](Cc2ccccc2)N(C)C(=O)[C@@H](C(C)C)NC(=O)C[C@@H](C(=O)N2CCCCC2)N(C)C(=O)[C@H](C)N(C)C(=O)[C@H](Cc2ccccc2)N(C)C(=O)[C@H](C)NC(=O)[C@H](COC(C)(C)C)NC(=O)[C@H](CC(C)C)N(C)C(=O)[C@H](C(C)C)NC(=O)CN(C)C1=O [pd086] ([dV][NMeF][NMeV]T[NMeL]L[Sar]V[NMeL]S(tBu)A[NMeF][NMeA][NMeD]-Piperidide; lactam N-14) | 0.06 10^-6 cm/sec | 0.06 ×10⁻⁶ cm/s | 20.1 µL/min/mg | 20.0 µL/min/mg Protein |  |  |  |
| CCCCN1CC(=O)N(C)[C@@H](CC(C)C)C(=O)N[C@@H]([C@@H](C)O)C(=O)N(C)[C@@H](C)C(=O)N2CCC[C@H]2C(=O)N[C@@H](CCc2ccccc2)C(=O)N[C@@H]([C@@H](C)CC)C(=O)N(C)[C@H](C(=O)N2CCCCC2)CC(=O)N(C)[C@@H](CC(C)C)C(=O)N[C@@H](COC(C)(C)C)C(=O)N(C)[C@@H](C(C)C)C(=O)N[C@@H]([C@@H](C)CC)C(=O)N2CCC[C@H]2C(=O)N[C@@H](C(C)C)C1=O [pd087] ([NMeL]S(tBu)[NMeV]IPV[NBuGly][NMeL]T[NMeA]P[hPhe]I[NMeD]-Piperidide; lactam N-14) | <0.07 10^-6 cm/sec | < 0.07 ×10⁻⁶ cm/s | 31.8 µL/min/mg | 29.0 µL/min/mg Protein |  |  |  |
| CC[C@@H]1NC(=O)[C@H](C(C)C)N(C)C(=O)[C@H](C(C)C)NC(=O)[C@H](C)N(C)C(=O)CCN(C)C(=O)[C@H](CCc2ccccc2)NC(=O)[C@H](CC(C)C)N(C)C(=O)[C@H]([C@@H](C)CC)NC(=O)CN(C)C(=O)C[C@@H](C(=O)N2CCCCC2)N(C)C(=O)[C@H](CC(C)C)NC(=O)[C@H](CC(C)C)N(C)C(=O)[C@H]([C@@H](C)O)NC(=O)[C@H](Cc2ccccc2)N(C)C1=O [pd088] ([Sar]I[NMeL][hPhe][NMeβAla][NMeA]V[NMeV][Abu][NMeF]T[NMeL]L[NMeD]-Piperidide; lactam N-14) | 0.11 10^-6 cm/sec | 0.11 ×10⁻⁶ cm/s | 20.9 µL/min/mg | 24.2 µL/min/mg Protein |  |  |  |
